Measured values taken from patent US8524636B2 (Dow Global Technologies LLC, priority 2010, dated 2013).
Read-outs that look alike come from different tables or passages of the source.

Legend:
[1] = system: green algae (Selenastrum capricornutum); conditions: cited from earlier work
[2] = system: Aspergillus niger mixed with Penicillium funiculosum; test: Fungal efficacy on dry paint film (Modified ASTM 5590), pool An + Pf; format: cell-based; conditions: for % Inhibition, An + Pf: dry film, four weeks
Procedure: (§1) A single biocide or blend of biocides was post added into white acrylic latex paint free of biocides to give a maximum total active ingredient/s concentration tested. This paint was then diluted with a biocide free acrylic latex paint to give targeted concentrations for the testing. Depending on the type of biocide blends tested, the total biocides concentrations varies from 400 to 3300 ppm. After biocides addition or dilution, each sample was hand mixed for at least a minute until uniformity was achieved. Each of the paint samples as well as a control sample (containing no biocide) were used to prepare films on black plastic-vinyl chloride/acetate copolymer panels (Leneta Company, Mahwah, N.J.) using a 0.0762 mm (3 mil) bird bar applicator. The panels were thoroughly dried for at least 2 days avoiding direct exposure to sunlight. Square discs (0.5 inch^2; 1.27 cm^2) were cut out from each panel and were used as the substrate for fungal and algal efficacy tests. This sample size allowed for an agar border when the sample disc was placed into the well of the test plate. Each sample was tested in duplicate.
(§2) The appropriate media (BOLD'S 3N for Chlorophytes, BG-11 for Cyanobacteria, and PDA for fungi) were used to support microbial growth. The test plates were maintained at room temp (25° C.-26° C.), in a cycled light-dark environment, for four weeks for algae. Plates for fungal challenge tests were maintained at 30° C. for four weeks. At the end of the incubation period the samples were scored for percent area covered by visible microbial growth.
(§3) Fungal efficacy was tested as follows (Modified ASTM 5590).
(§4) ASTM 5590 is a standard accelerated test method for determining resistance of various coatings (including paints) to fungal defacement. To accommodate for high-throughput screening, this method was scaled down from petri plates to 6-well plates. To set up the test, an agar plug was placed at the bottom of each well of the sterile 6-well plate. A single coupon was placed with a pair of sterile forceps at the center of the agar plug (on top) with the painted surface facing upwards. Fungal inoculums were prepared by mixing equal concentrations (approximately 1×10^6 cfu/ml) and equal volumes (depending on number of samples to be tested) of like growing organisms. For this synergy study, three pools of mixed fungi were prepared as the test inoculum. Cladosporium herbarum was mixed with Trichoderma viride, Aspergillus niger was mixed with Penicillium funiculosum and Alternaria alternata was mixed with Aureobasidium pullulans. Each well was inoculated with 400 microliter of organism mixture (approximately 1×10^6 cfu/ml) making sure that the whole surface (paint film as well as the agar surrounding it) was evenly covered. The plates were incubated at 30° C. in presence of moisture, for a period of four weeks. The total percent area covered was evaluated and recorded at the end of each week and recorded in increments of 5%.
(§5) The SI is calculated based on F. C. Kull et.
(§6) SI value of <1 in the formula indicates a synergism of the blended biocides exists.
(§7) NE=no end point at the concentration tested that will meet the percent inhibition criteria set in each SI calculation.

[3] = system: Alternaria alternata mixed with Aureobasidium pullulans; test: Fungal efficacy on dry paint film (Modified ASTM 5590), pool Aa + Ap; format: cell-based
Procedure: as §1, §2, §3
as §4, with “Each well was inoculated with 400 microliter of organism mixture (approximately 1×10^6 cfu/ml) making sure that the whole surface (paint film as well as the agar surrounding it) was evenly covered. The plates were incubated at 30° C. in presence of moisture, for a period of four weeks.” left out
(§8) The SI is calculated based on F. C. […]

[4] = system: Cladosporium herbarum mixed with Trichoderma viride; test: Fungal efficacy on dry paint film (Modified ASTM 5590), pool TV + Ch; format: cell-based
Procedure: as §1, §2, §3
ASTM 5590 is a standard accelerated test method for determining resistance of various coatings (including paints) to fungal defacement. To accommodate for high-throughput screening, this method was scaled down from petri plates to 6-well plates. […] The total percent area covered was evaluated and recorded at the end of each week and recorded in increments of 5%.
as §8

[5] = system: Gloeocapsa sp. and Oscillatoria sp.; test: Algal efficacy on dry paint film (Modified ASTM 5589), pool Gs + Os; format: cell-based
Procedure: as §1, §2
Algal efficacy was tested as follows (Modified ASTM 5589).
ASTM 5589 is a standard accelerated test method for determining resistance of various coatings (including paints) to algal defacement. To accommodate for high-throughput screening, this method was scaled down from petri plates to 6-well plates. A single coupon was placed with a pair of sterile forceps at the center of the agar plug (on top) with the painted surface facing upwards. Algal inoculums were prepared by mixing equal concentrations (approximately 1×10^6 cfu/ml) and equal volumes (depending on number of samples to be inoculated) of like growing organisms.
In this synergy study, three pool of mixed algae were prepared as the test inoculum, Gloeocapsa sp. and Oscillatoria sp. a mix of cyanobacteria grown on BG-11 media; Chlorella sp., Chlorella kessleri, and Nostoc commune are unicellular chlorphytes that were mixed and grown on Bold media; Trentepohlia aurea, Tretepohlia odorata, and Calotrix parientina are filamentous algae that were mixed and grown on Bold media.
Each well that contained a tested coupon was inoculated with 400 μl of organism mixture (approximately 1×10^6 cfu/ml) making sure that the whole surface (paint film as well as the agar surrounding it) was evenly covered. The plates were incubated at room temp (25° C.-26° C.) with cyclic exposure to light (OTT-Lite model # OTL4012P, 40 Watt, 26 KLumen) and dark phases, for a period of four weeks. The total area covered was evaluated at the end of each week according to percent area covered in 5% increments.
as §5, §6, §7

[6] = Total conc 750 ppm (synergy table)
[7] = Total conc 1500 ppm (synergy table)
[8] = Total conc 2500 ppm (synergy table)
[9] = Conc. 1500 ppm in paint, dry film, four weeks
[10] = Conc. 2500 ppm in paint, dry film, four weeks
[11] = Conc. 750 ppm in paint, dry film, four weeks

O=C(O)CNCP(=O)(O)O [Glyphosate, N-(phosphonomethyl)glycine]
EbC50 (median effective concentration for biomass) ([1]; 72 hr): 485 mg/L | ErC50 (median effective concentration for growth rate) ([1]; 72 hr): 460 mg/L | EbC50 (median effective concentration for biomass) ([1]; 7 day): 13.8 mg/L

CCCCNC(=O)OCC#CI [IPBC, 3-iodo-2-propynyl-butylcarbamate, reference compound]
% inhibition, AnPf [2, 6]: 65% | % inhibition, Aa + Ap [3, 6]: 90% | % Inhibition, TV + Ch [4, 7]: 75% | % Inhibition, Gs + Os [5, 7]: 82.5%

Zinc Glyphosate
% Inhibition, An + Pf ([2]; Conc. 750 ppm in paint): 20% | % Inhibition, An + Pf ([2]; Conc. 1500 ppm in paint): 27.5% | % Inhibition, An + Pf ([2]; Conc. 2500 ppm in paint): 30% | % inhibition, AnPf [2, 8]: 30% | % inhibition, Aa + Ap [3, 9]: 47.5% | % inhibition, Aa + Ap [3, 10]: 70% | % inhibition, Aa + Ap [3, 8]: 70% | % Inhibition, TV + Ch [4, 11]: 50% | % Inhibition, TV + Ch [4, 10]: 90% | % Inhibition, Gs + Os [5, 11]: 15% | % Inhibition, Gs + Os [5, 9]: 72.5% | % Inhibition, Gs + Os [5, 10]: 90% | % Inhibition, Gs + Os [5, 7]: 72.5%
